Several values for one entry are separate records, joined by “and”; a condition that tells them apart may be missing. Identical values can stand only once. Like-named read-outs stand apart in the source and are kept apart here. *1 amine or outer side, *2 acyl side, *3 side chain or, on linkers, in order; H or OH if unused. Where a SMILES comes first, the peptide text is derived from it. Bridges are numbered along the chain shown (N, C = ends). The star is where a group is joined. Fluorescein(5-Mal) = O=C1OC2(c3ccc(O)cc3Oc3cc(O)ccc32)c2ccc(N3C(=O)CC(*)C3=O)cc21; X2 = CN(C)c1ccc2c(-c3ccc(N4C(=O)CC(*)C4=O)cc3C(=O)[O-])c3ccc(=[N+](C)C)cc-3oc2c1; X1 = O=C(c1cccc(C[*:2])c1)[*:1]; X3 = Fc1c(F)c(F)c(*)c(F)c1F
How the values were obtained:
U2OS cells [1] = test system: U2OS cells
Procedure: (§1) Cells were seeded for 24 h on Ibidi 8 well µ-slides treated with poly-L-lysine to reach ~90% confluency. Cells were then washed three times with warm PBS followed by incubation for 1 h with a warm serum-free medium (DMEM) containing peptides. Thereafter, cells were washed two times with warm PBS. Prior to imaging, cells were washed with an optical culture medium and stained with Hoechst (2 µg/ml). Live cell CLSM images were captured using Confocal Zeiss LSM 710 equipped with 40× NA 1.2 water immersion objective lens using a 1 AU pinhole settings. Different lasers were used for the different tags (Hoechst, TAMRA, FITC), and during analysis, the µ-slide was kept at 37 °C in a humidified chamber. Images were analyzed using ZEN 3.2 (blue edition).

Lys63 linked Di-Ub = molecular target: T1, Lys63 linked Di-Ub (Homo sapiens, UniProt P0CG48); assay: KD determination of fluorophore-labeled cyclic peptides, fluorescence-based assay; type: binding; conditions: for Kd: fluorophore-labeled peptide, Y = Bmax*X/(KD + X); for Reading-1 / Reading-2 / Reading-3: raw fluorescence, blank not subtracted, Experiments 1-3
T1 construct: made in house; host or cells: total chemical synthesis (Fmoc-SPPS, ligation, desulfurization)
Procedure: (ii) Determination of KD value of CP1-FITC
According to the described procedure in literature,3 the KD value of FITC-labeled cyclic peptide 1 (CP1- […]
Supplementary Fig. 25 The carve represents the binding of CP1-FITC to Lys63 linked Di-Ub. Using Y = […]
All measurements were performed in three independent experiments. Bars represent mean values. All source data are provided as a Source […]
(iii) Determination of KD value of CP1-TAMRA
The fluorescence values were measured (λex = 510 nm and λem = 565 nm) in a similar way as described for CP1-FITC. The dissociation constant (KD) value of TAMRA-labeled CP1 (CP1-TAMRA) was calculated as 101.9 ± 3.6 nM. All measurements were performed in triplicates.
Supplementary Fig. 26 The carve represents the binding of CP1-TAMRA to Lys63 linked Di-Ub. Using […]
performed in triplicates. All measurements were performed in three independent experiments. Bars represent mean values. All source data are provided as a Source data file. […]
(iv) Determination of KD value of 2-FITC, 29
The dissociation constant (KD) value of FITC-labeled cyclic peptide 29 was calculated as 43.2± 4 nM.
Supplementary Fig. 27 The carve represents the binding of 2-FITC to Lys63 linked Di-Ub. Using Y = […]
All measurements were performed in triplicates. All measurements were performed in three independent experiments. Bars represent mean values. All source data are provided as a Source data file .
(v) Determination of KD value of 2-TAMRA, 26
CP1-FITC. The dissociation constant (KD) value of TAMRA-labeled 26 (2-TAMRA) was calculated as 47.4 ± 5.9 nM. All measurements were performed in triplicates.
Supplementary Fig. 28 The carve represents the binding of 2-TAMRA to Lys63 linked Di-Ub. Using Y = […]
in triplicates. All measurements were performed in three independent experiments. Bars represent mean […]
(vi) Determination of KD value of FITC labeled cyclic peptide 27a for cyclic peptide 20 […]
Supplementary Fig. 29 The carve represents the binding of 27a to Lys63 linked Di-Ub. Using Y = […]
values. All source data are provided as a Source data file. […]

U2OS cells [2] = assay: Cell uptake study by confocal microscopy; conditions: live U2OS cells, 1 h, laser scanning confocal microscopy
Procedure: as §1

cells = assay: Cell membrane integrity analysis, SYTOX blue assay; type: cell-based; conditions: up to 2 μM of cyclic peptides
Procedure: To assess the cell toxicity due to the loss of membrane integrity within the concentration range used for efficient live-cell delivery of synthetic cyclic peptide molecules, we proceed similarly to the cell uptake experiment and stain the cells with SYTOX™ Blue (100 nM)[44]. SYTOX™ blue dead cell stain is a high-affinity nucleic acid stain that easily penetrates cells with compromised plasma membranes but will not cross uncompromised cell membranes. […] CLSM images were analyzed using ZEN 3.2 (blue edition).

## CC[C@H](C)[C@@H]1NC(=O)[C@H](Cc2c[nH]c3ccccc23)NC(=O)[C@H]([C@@H](C)CC)NC(=O)[C@H](CC(C)C)NC(=O)[C@H](CS)NC(=O)c2cccc(c2)CSC[C@@H](C(=O)NCC(=O)N[C@@H](C)C(=O)N[C@@H](CSC2CC(=O)N(c3ccc4c(c3)C(=O)OC43c4ccc(O)cc4Oc4cc(O)ccc43)C2=O)C(N)=O)NC(=O)[C@H](CC(C)C)NC(=O)[C@H]([C@@H](C)CC)NC(=O)[C@H](Cc2ccc(O)cc2)NC(=O)[C@@H]2CCCN2C(=O)[C@H](CC(N)=O)NC(=O)[C@H](CCCCN)NC(=O)[C@H](CO)NC(=O)[C@H](CO)NC(=O)CNC1=O (stereo partly drawn) [2-FITC] (CLIWIGSSKNPYILCGAC(Fluorescein(5-Mal))-NH2; linker N-15 via X1)
U2OS cells [1]
  cell-permeability / delivery to cells: did not observe an efficient delivery
Lys63 linked Di-Ub
  Kd: 0.0432 ± 0.004 µM

## CC[C@H](C)[C@@H]1NC(=O)[C@H](Cc2c[nH]c3ccccc23)NC(=O)[C@H]([C@@H](C)CC)NC(=O)[C@H](CC(C)C)NC(=O)[C@H](CS)NC(=O)c2cccc(c2)CSC[C@@H](C(=O)NCC(=O)N[C@@H](C)C(=O)N[C@@H](CSC2CC(=O)N(c3ccc(-c4c5ccc(=[N+](C)C)cc-5oc5cc(N(C)C)ccc45)c(C(=O)[O-])c3)C2=O)C(N)=O)NC(=O)[C@H](CC(C)C)NC(=O)[C@H]([C@@H](C)CC)NC(=O)[C@H](Cc2ccc(O)cc2)NC(=O)[C@@H]2CCCN2C(=O)[C@H](CC(N)=O)NC(=O)[C@H](CCCCN)NC(=O)[C@H](CO)NC(=O)[C@H](CO)NC(=O)CNC1=O (stereo partly drawn) [2-TAMRA] (CLIWIGSSKNPYILCGAC(X2)-NH2; linker N-15 via X1)
Lys63 linked Di-Ub
  Kd: 0.0474 ± 0.0059 µM
U2OS cells [2]
  cell-permeability / delivery to cells: efficient cell-permeability
cells
  SYTOX signal (cell membrane integrity): did not detect SYTOX signal

## CC[C@H](C)[C@@H]1NC(=O)[C@H](Cc2c[nH]c3ccccc23)NC(=O)[C@H]([C@@H](C)CC)NC(=O)[C@H](CC(C)C)NC(=O)[C@H](CSc2c(F)c(F)c(F)c(F)c2F)NC(=O)c2cccc(c2)CSC[C@@H](C(=O)NCC(=O)N[C@@H](C)C(=O)N[C@@H](CSC2CC(=O)N(c3ccc4c(c3)C(=O)OC43c4ccc(O)cc4Oc4cc(O)ccc43)C2=O)C(N)=O)NC(=O)[C@H](CC(C)C)NC(=O)[C@H]([C@@H](C)CC)NC(=O)[C@H](Cc2ccc(O)cc2)NC(=O)[C@@H]2CCCN2C(=O)[C@H](CC(N)=O)NC(=O)[C@H](CCCCN)NC(=O)[C@H](CO)NC(=O)[C@H](CO)NC(=O)CNC1=O (stereo partly drawn) [27a] (C(X3)LIWIGSSKNPYILCGAC(Fluorescein(5-Mal))-NH2; linker N-15 via X1)
Lys63 linked Di-Ub
  Kd: 0.285 ± 0.0119 µM

## CC[C@H](C)[C@@H]1NC(=O)[C@H](Cc2c[nH]c3ccccc23)NC(=O)[C@H]([C@@H](C)CC)NC(=O)[C@H](CC(C)C)NC(=O)[C@H](CC(C)C)NC(=O)c2cccc(c2)CSC[C@@H](C(=O)NCC(=O)N[C@@H](C)C(=O)N[C@@H](CSC2CC(=O)N(c3ccc4c(c3)C(=O)OC43c4ccc(O)cc4Oc4cc(O)ccc43)C2=O)C(N)=O)NC(=O)[C@H](CC(C)C)NC(=O)[C@H]([C@@H](C)CC)NC(=O)[C@H](Cc2ccc(O)cc2)NC(=O)[C@@H]2CCCN2C(=O)[C@H](CC(N)=O)NC(=O)[C@H](CCCCN)NC(=O)[C@H](CO)NC(=O)[C@H](CO)NC(=O)CNC1=O (stereo partly drawn) [CP1-FITC] (LLIWIGSSKNPYILCGAC(Fluorescein(5-Mal))-NH2; linker N-15 via X1)
Lys63 linked Di-Ub; conc. 10 nM
  Reading-1: 1192 and 1298 and 1136
  Reading-2: 1174 and 1279 and 1151
  Reading-3: 1201 and 1288 and 1189
Lys63 linked Di-Ub; conc. 20 nM
  Reading-1: 1625 and 1719 and 1573
  Reading-2: 1643 and 1748 and 1595
  Reading-3: 1657 and 1774 and 1588
Lys63 linked Di-Ub; conc. 40 nM
  Reading-1: 2317 and 2485 and 2207
  Reading-2: 2298 and 2498 and 2217
  Reading-3: 2354 and 2474 and 2221
Lys63 linked Di-Ub; conc. 50 nM
  Reading-1: 2713 and 2954 and 2674
  Reading-2: 2756 and 2925 and 2696
  Reading-3: 2732 and 2851 and 2602
Lys63 linked Di-Ub; conc. 100 nM
  Reading-1: 3252 and 3463 and 3183
  Reading-2: 3236 and 3622 and 3192
  Reading-3: 3249 and 3477 and 3196
Lys63 linked Di-Ub; conc. 150 nM
  Reading-1: 3598 and 3825 and 3755
  Reading-2: 3624 and 3817 and 3779
  Reading-3: 3602 and 3844 and 3784
Lys63 linked Di-Ub; conc. 200 nM
  Reading-1: 4108 and 4275 and 4422
  Reading-2: 4147 and 4231 and 4454
  Reading-3: 4171 and 4244 and 4397
Lys63 linked Di-Ub; conc. 250 nM
  Reading-1: 4518 and 4629 and 4716
  Reading-2: 4536 and 4677 and 4749
  Reading-3: 4549 and 4687 and 4765
Lys63 linked Di-Ub; conc. 300 nM
  Reading-1: 4808 and 4979 and 5034
  Reading-2: 4853 and 4995 and 5045
  Reading-3: 4869 and 4968 and 5076

From paper PMC9579194, “Selective macrocyclic peptide modulators of Lys63-linked ubiquitin chains disrupt DNA damage repair” (Nature Communications, 2022)
